Data taken from patent publication US11666558B2, “Methods of treating intraocular pressure with activators of Tie-2” (EyePoint Pharmaceuticals, Inc., priority 2015, dated 2023).
Counter-ions that a name gives are not always drawn. Like-named read-outs stand apart in the source and are kept apart here.

Assay: Ocular tissue concentrations (aqueous humor, vitreous humor, iris, retina, choroid, cornea) after topical ocular, subcutaneous and intravitreal administration
Format: in vivo, New Zealand White rabbits
Conditions: for concentration at 4 h / concentration at 0.5 h / concentration at 1 hr / concentration at 2 hr / concentration at 4 hr / concentration at 0.5 hr / concentration at 2 h / concentration at 1 h / concentration at 6 hr / concentration at 24 h / concentration at 48 h / concentration at 72 h: New Zealand White, rabbit; for concentration at 6 hr / concentration at 24 h / concentration at 48 h / concentration at 72 h: other: intravitreal, 2.5 mg per eye, Group 4 intravitreal 2.5 mg per eye
Description: To measure the concentration of Compound 1 in plasma and ocular tissues following topical ocular, subcutaneous, and intravitreal administration, New Zealand White rabbits were administered Compound 1, and plasma and ocular samples were collected at pre-determined time points. Compound 1 formulations were prepared fresh on each day of dosing.
Ocular tissue samples from both eyes of each animal were collected and weights were recorded. Plasma and ocular tissue sample concentrations of Compound 1 were determined by LC-MS/MS.
New Zealand White rabbits weighing 2.5 to 3.5 kg were used on this study. Rabbits were housed one per cage. Animals were not fasted and only healthy animals with no ocular illness were used. Two rabbits per group were sacrificed at each of four ocular tissue sampling time points for a total of eight rabbits per group.
Animals were anesthetized for ocular (topical) and intravitreal dosing following the 12IA7 IACUC protocol. Each rabbit received a bolus dose of test formulation either via topical ocular administration 3 times daily on Days 1 and 2 (at 0, 6, and 12 hours), and once on Day 3 (at 0 hours) into both eyes; via intravitreal administration into both eyes once on Day 1 (at 0 hours); or via subcutaneous administration 2 times daily on Days 1 and 2 (at 0 and 8 hours) and once daily on Day 3 (at 0 hours). Doses were given within an approximately 1 hour window each day where applicable.
On Day 1, for intravitreal administration, or on Day 3, for topical ocular and subcutaneous administration, at the appropriate ocular tissue collection time points, animals were euthanized and both eyes were enucleated immediately. Following enucleation, each eye was rinsed with phosphate-buffered saline. Ocular tissue samples from both eyes of each animal were collected at predetermined time points and weights were recorded. All the samples were frozen immediately on dry ice, and stored at −60° C. to −80° C. pending bioanalysis.
An LC-MS/MS method was developed for the determination of Compound 1 in rabbit aqueous tissues (plasma, aqueous and vitreous humor) and solid ocular tissue samples. A pre-study standard curve was analyzed to determine the specificity, range, and lower limit of quantitation of the method. Plasma and tissue homogenate study samples were extracted and analyzed. All the samples were treated identically to the standards.
One eight-point standard curve was used in each analytical batch. To be accepted, each batch must have had at least five of eight standards with accuracy within ±20% of nominal, except at the lower limit of quantification (LLOQ), where ±25% was acceptable.
Concentration versus time data is plotted in FIGS. 3-16. All data are expressed as ng/g of the free drug. Samples that were below the limit of quantitation (0.2 ng/mL) were not used in the calculation of averages.

[1] = vitreous humor, read-out: vitreous humor Average Conc.
[2] = vitreous humor, read-out: vitreous humor Conc., individual eyes (OD, OS)

concentration at 4 h (aqueous humor, topical, 1.2 mg/eye, Group 1 topical ocular 1.2 mg/eye, 4.0 hr, read-out: aqueous humor Average Conc.): 8.24 ng/g | concentration at 0.5 h (choroid, topical, 1.2 mg/eye, topical ocular 1.2 mg/eye (~0.7 mg/kg/dose), read-out: Choroid tissue Average): 57.7 ng/g | concentration at 1 hr (choroid, topical, 1.2 mg/eye, topical ocular 1.2 mg/eye (~0.7 mg/kg/dose), 1 hr, read-out: Choroid tissue Average): 32.2 ng/g | concentration at 2 hr (choroid, topical, 1.2 mg/eye, topical ocular 1.2 mg/eye (~0.7 mg/kg/dose), 2 hr, read-out: Choroid tissue Average): 59.2 ng/g | concentration at 4 hr (choroid, topical, 1.2 mg/eye, topical ocular 1.2 mg/eye (~0.7 mg/kg/dose), 4 hr, read-out: Choroid tissue Average): 165 ng/g | concentration at 0.5 hr (cornea, topical, 1.2 mg/eye, topical ocular 1.2 mg/eye (~0.7 mg/kg/dose), read-out: Cornea tissue Average): 1020 ng/g | concentration at 0.5 hr (cornea, topical, 1.2 mg/eye, topical ocular 1.2 mg/eye (~0.7 mg/kg/dose), read-out: Cornea tissue Conc., individual eyes (OD, OS)): 427 ng/g | concentration at 1 hr (cornea, topical, 1.2 mg/eye, topical ocular 1.2 mg/eye (~0.7 mg/kg/dose), 1 hr, read-out: Cornea tissue Average): 548 ng/g | concentration at 2 hr (cornea, topical, 1.2 mg/eye, topical ocular 1.2 mg/eye (~0.7 mg/kg/dose), 2 hr, read-out: Cornea tissue Average): 1070 ng/g | concentration at 4 hr (cornea, topical, 1.2 mg/eye, topical ocular 1.2 mg/eye (~0.7 mg/kg/dose), 4 hr, read-out: Cornea tissue Average): 534 ng/g | concentration at 0.5 hr (iris homogenate, topical, 1.2 mg/eye, topical ocular 1.2 mg/eye (~0.7 mg/kg/dose), read-out: Iris homogenate Conc., individual eyes (OD, OS)): 2.55 ng/mL | concentration at 0.5 hr (iris, topical, 1.2 mg/eye, topical ocular 1.2 mg/eye (~0.7 mg/kg/dose), read-out: Iris tissue Average): 24.3 ng/g | concentration at 0.5 hr (iris, topical, 1.2 mg/eye, topical ocular 1.2 mg/eye (~0.7 mg/kg/dose), read-out: Iris tissue Conc., individual eyes (OD, OS)): 17.8 ng/g | concentration at 1 hr (iris, topical, 1.2 mg/eye, topical ocular 1.2 mg/eye (~0.7 mg/kg/dose), 1 hr, read-out: Iris tissue Average): 55.2 ng/g | concentration at 2 h (iris, topical, 1.2 mg/eye, topical ocular 1.2 mg/eye (~0.7 mg/kg/dose), 2 hr, read-out: Iris tissue Average): 51.9 ng/g | concentration at 4 h (iris, topical, 1.2 mg/eye, topical ocular 1.2 mg/eye (~0.7 mg/kg/dose), 4 hr, read-out: Iris tissue Average): 261 ng/g | concentration at 4 h (iris, topical, 1.2 mg/eye, topical ocular 1.2 mg/eye (~0.7 mg/kg/dose), 4 hr, read-out: Iris tissue Conc., individual eyes (OD, OS)): 30.7 ng/g | concentration at 0.5 h (retina, topical, 1.2 mg/eye, topical ocular 1.2 mg/eye (~0.7 mg/kg/dose), read-out: Retina tissue Average): 25.6 ng/g | concentration at 1 h (retina, topical, 1.2 mg/eye, topical ocular 1.2 mg/eye (~0.7 mg/kg/dose), 1 hr, read-out: Retina tissue Average): 59.2 ng/g | concentration at 2 h (retina, topical, 1.2 mg/eye, topical ocular 1.2 mg/eye (~0.7 mg/kg/dose), 2 hr, read-out: Retina tissue Average): 48.3 ng/g | concentration at 4 h (retina, topical, 1.2 mg/eye, topical ocular 1.2 mg/eye (~0.7 mg/kg/dose), 4 hr, read-out: Retina tissue Average): 405 ng/g | concentration at 6 hr [1]: 988000 ng/g | concentration at 6 hr [2]: 592000 ng/mL | concentration at 24 h [1]: 350000 ng/g | concentration at 24 h [2]: 438000 ng/mL | concentration at 48 h [1]: 82000 ng/g | concentration at 48 h [2]: 85200 ng/mL | concentration at 72 h [1]: 13400 ng/g | concentration at 72 h [2]: 14500 ng/mL | concentration at 0.5 hr (vitreous humor, subcutaneous, 5 mg/kg, Group 2 subcutaneous 5 mg/kg, read-out: vitreous humor Average Conc.): 0.83 ng/g | concentration at 0.5 hr (vitreous humor, subcutaneous, 5 mg/kg, Group 2 subcutaneous 5 mg/kg, read-out: vitreous humor Conc., individual eyes (OD, OS)): 0.77 ng/mL | concentration at 1 hr (vitreous humor, subcutaneous, 5 mg/kg, Group 2 subcutaneous 5 mg/kg, 1.0 hr, read-out: vitreous humor Average Conc.): 0.45 ng/g | concentration at 0.5 h (vitreous humor, topical, 1.2 mg/eye, Group 1 topical ocular 1.2 mg/eye, read-out: vitreous humor Average Conc.): 0.61 ng/g | concentration at 0.5 h (vitreous humor, topical, 1.2 mg/eye, Group 1 topical ocular 1.2 mg/eye, read-out: vitreous humor Conc., individual eyes (OD, OS)): 0.528 ng/mL | concentration at 1 h (vitreous humor, topical, 1.2 mg/eye, Group 1 topical ocular 1.2 mg/eye, 1.0 hr, read-out: vitreous humor Average Conc.): 2.09 ng/g | concentration at 2 hr (vitreous humor, topical, 1.2 mg/eye, Group 1 topical ocular 1.2 mg/eye, 2.0 hr, read-out: vitreous humor Average Conc.): 3.33 ng/g | concentration at 2 hr (vitreous humor, topical, 1.2 mg/eye, Group 1 topical ocular 1.2 mg/eye, 2.0 hr, read-out: vitreous humor Conc., individual eyes (OD, OS)): 1.14 ng/mL | concentration at 4 hr (vitreous humor, topical, 1.2 mg/eye, Group 1 topical ocular 1.2 mg/eye, 4.0 hr, read-out: vitreous humor Average Conc.): 4.01 ng/g | aqueous humor concentrations (topical ocular administration, over four hours (FIG. 6)): below 50 ng/g
Compound: COC(=O)N[C@@H](Cc1ccccc1)C(=O)N[C@@H](Cc1ccc(NS(=O)(=O)O)cc1)c1csc(-c2cccs2)n1 [Compound 1 sodium salt]
